Laboratory results published in PubChem BioAssay AID2060488 (Molecular Pharmacology Branch, DTP, NCI, 2025).

Test system: 966289-007-R4-J1-PDC complex spheroid viability
Assay: Anticancer human tumor 966289-007-R4-J1-PDC patient-derived pancreatic adenocarcinoma cell line growth inhibition [GQUAD]
Settings: for IC50: curve of first compound; for viability, T/C: stronger effect = lower value
Text: DNA G-quadruplex Stabilizer Agents in Combinations in Complex Spheroids
A high-throughput screen of multi-cell type tumor spheroids was designed to identify active combinations of DNA G-quadruplex stabilizer agents and targeted small molecules. Complex spheroids include a stromal component modeled by human endothelial cells (HUVEC) and fibroblasts modeled by human mesenchymal stem cells (MSCs). The concentration ranges selected for each drug and investigational agent were based upon clinically achievable concentrations if the clinical Cmax of the agent was known.
Compounds. The drugs and investigational agents: pidnarulex (CX-5461; NSC782164), APTO-253 (NSC789042), BRACO-19 (NSC847499), peposertib (NSC802822), ceralasertib (NSC780249), elimusertib (NSC800525), camonsertib (NSC841442), AZD-1390 (NSC803789), olaparib (NSC753686), talazoparib (NSC767125), ART-558 (NSC835418), sotorasib (NSC818433), MRTX-1133 (NSC836407), SN-38 (NSC673596), topotecan (NSC609699), etoposide (NSC141540), doxorubicin (NSC123127), gemcitabine (NSC613327), 5-fluorouracil (NSC19893), paclitaxel (NSC125973), vemurafenib (NSC761431), panobinostat (NSC761190), R-306465 (JNJ-16241199; NSC773264), adavosertib (NSC754352), TP-3654 (NSC805149), carboplatin (NSC241240), KSQ-4279 (NSC840948), and staurosporine (NSC755774) were obtained from the National Cancer Institute (NCI) Developmental Therapeutics Program Chemical Repository (34). The FDA-approved anticancer drug set is available from the NCI Developmental Therapeutics Program. […] The stock solutions were prepared in dimethyl sulfoxide (DMSO, Sigma-Aldrich, St. Louis, MO, cat. D2650) at 800-fold the tested concentration and stored at -70 degrees C prior to their use. All drugs and investigational agents were tested over a range starting from a high concentration at or near the clinical Cmax and decreasing in half-log increments. If the clinical Cmax for an agent had not been determined, the highest concentration tested was 10 microM.
2.3 Cell Culture. All cells were maintained in an incubator at 37 degrees C and 5% CO2 with 95% humidity. The PDC lines were cultured according to standard operating procedures established by the NCI PDMR. All PDCs were thawed and cultured in Matrigel-coated flasks prepared with a working solution of 1X Ham's F-12 nutrient mix, without supplementation (Invitrogen, cat. 11765054), 100 U/mL penicillin-streptomycin (Invitrogen, cat. 15140122), and 2.5% Matrigel (Corning Inc., cat. 354248) for the first three passages. The 857933-349-R-J2-PDC line was cultured in 6C/Colon 1B media, which includes advanced DMEM/F-12 (Thermo Fisher Scientific, cat. 12634028), 10 mM HEPES (Thermo Fisher Scientific, cat. 15630080), 1X GlutaMAX supplement (Thermo Fisher Scientific, cat. 35050061), 0.1 mg/mL primocin (InvivoGen, cat. ant-pm-2), 10% defined fetal bovine serum, heat inactivated (HyClone Laboratories Inc., cat. SH30070.03HI), 50% L-WRN conditioned media (ATCC, cat. CRL-3276), 1.25 mM N-Acetyl-L-cysteine (Sigma-Aldrich, cat. A9165), 10 mM nicotinamide (Sigma-Aldrich, cat. N0636), 1X B-27 supplement (Thermo Fisher Scientific, cat. 17504044), 1X N-2 supplement (Thermo Fisher Scientific, cat. 17502048), 10 microM Y-27632 dihydrochloride (Tocris Bioscience, cat. 1254), and 50 ng/mL human EGF recombinant protein (Thermo Fisher Scientific, cat. PHG0311). The 485176-168-R4-J1-PDC line was cultured in Panc media, which includes all 6C/Colon 1B media components plus 100 ng/mL human FGF-10 (Thermo Fisher Scientific, cat. 100-26), 500 nM SB-431542 (Selleckchem, cat. S1067), and gastrin (Tocris, cat. 3006).
[…]

[1] = second compound 0.0316 µM, first compound 0.0316 µM
[2] = second compound 0.0316 µM, first compound 0.316 µM
[3] = second compound 0.1 µM, first compound 0.0316 µM
[4] = second compound 0.1 µM, first compound 0.316 µM
[5] = second compound 0.316 µM, first compound 0.0316 µM
[6] = second compound 0.316 µM, first compound 0.316 µM
[7] = second compound 1 µM, first compound 0.0316 µM
[8] = second compound 1 µM, first compound 0.316 µM
[9] = second compound 3.16 µM, first compound 0.0316 µM
[10] = second compound 3.16 µM, first compound 0.316 µM
[11] = second compound 10 µM, first compound 0.0316 µM
[12] = second compound 10 µM, first compound 0.316 µM
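Note: spheroids exposed to the agents for seven days before readout.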
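Throughout, for viability, T/C: percent viability relative to DMSO vehicle control wells taken as 100%.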

In the case of C=CC(=O)N1CCN(c2nc(=O)n(-c3c(C)ccnc3C(C)C)c3nc(-c4c(O)cccc4F)c(F)cc23)C(C)C1 (centres undefined) + Cc1[nH]c2ccc(F)cc2c1-c1nc2c3cccnc3c3ncccc3c2[nH]1, the IC50 (second compound 0.0316 µM) is reported as > 10 µM, the IC50 (second compound 0.1 µM) is reported as > 10 µM and the IC50 (second compound 0.316 µM) is reported as > 10 µM. The IC50 (second compound 1 µM) was > 10 µM, the IC50 (second compound 3.16 µM) was > 10 µM and the IC50 (second compound 10 µM) was > 10 µM. It also gave a viability, T/C [1] of 99.9%, a viability, T/C (second compound 0.0316 µM, first compound 0.1 µM) of 94.1% and a viability, T/C [2] of 103%. For the same compound, the viability, T/C (second compound 0.0316 µM, first compound 1 µM) was 93.8%, the viability, T/C (second compound 0.0316 µM, first compound 3.16 µM) was 105% and the viability, T/C (second compound 0.0316 µM, first compound 10 µM) was 107%. It also gave a viability, T/C [3] of 105%, a viability, T/C (second compound 0.1 µM, first compound 0.1 µM) of 96.6% and a viability, T/C [4] of 103%. The viability, T/C (second compound 0.1 µM, first compound 1 µM) was 95.2%, the viability, T/C (second compound 0.1 µM, first compound 3.16 µM) was 102% and the viability, T/C (second compound 0.1 µM, first compound 10 µM) was 114%. It also gave a viability, T/C [5] of 97.4%, a viability, T/C (second compound 0.316 µM, first compound 0.1 µM) of 99.7% and a viability, T/C [6] of 90.3%. It also gave a viability, T/C (second compound 0.316 µM, first compound 1 µM) of 106%, a viability, T/C (second compound 0.316 µM, first compound 3.16 µM) of 104% and a viability, T/C (second compound 0.316 µM, first compound 10 µM) of 111%. For the same compound, the viability, T/C [7] was 95.4%, the viability, T/C (second compound 1 µM, first compound 0.1 µM) was 103% and the viability, T/C [8] was 105%. The viability, T/C (second compound 1 µM, first compound 1 µM) was 98.4%, the viability, T/C (second compound 1 µM, first compound 3.16 µM) was 86.1% and the viability, T/C (second compound 1 µM, first compound 10 µM) was 109%. The viability, T/C [9] was 101%, the viability, T/C (second compound 3.16 µM, first compound 0.1 µM) was 101% and the viability, T/C [10] was 111%. The viability, T/C (second compound 3.16 µM, first compound 1 µM) was 100%, the viability, T/C (second compound 3.16 µM, first compound 3.16 µM) was 108% and the viability, T/C (second compound 3.16 µM, first compound 10 µM) was 101%. For the same compound, the viability, T/C [11] was 99.2%, the viability, T/C (second compound 10 µM, first compound 0.1 µM) was 98% and the viability, T/C [12] was 104%. The viability, T/C (second compound 10 µM, first compound 1 µM) was 101%, the viability, T/C (second compound 10 µM, first compound 3.16 µM) was 94.4% and the viability, T/C (second compound 10 µM, first compound 10 µM) was 76.8%.

For CC[C@@]1(O)C(=O)OCc2c1cc1n(c2=O)Cc2cc3c(CN(C)C)c(O)ccc3nc2-1 + Cc1[nH]c2ccc(F)cc2c1-c1nc2c3cccnc3c3ncccc3c2[nH]1, the IC50 (second compound 0.0316 µM) was 0.0446 µM, the IC50 (second compound 0.1 µM) was 0.048 µM and the IC50 (second compound 0.316 µM) was 0.0502 µM. It also gave an IC50 (second compound 1 µM) of 0.0492 µM, an IC50 (second compound 3.16 µM) of 0.0369 µM and an IC50 (second compound 10 µM) of 0.0259 µM. For the same compound, the viability, T/C (second compound 0.0316 µM, first compound 0.000999 µM) was 102%, the viability, T/C (second compound 0.0316 µM, first compound 0.00316 µM) was 94.6% and the viability, T/C (second compound 0.0316 µM, first compound 0.00999 µM) was 90.2%. It also gave a viability, T/C [1] of 70.8%, a viability, T/C (second compound 0.0316 µM, first compound 0.0999 µM) of 0.88% and a viability, T/C [2] of 0.48%. It also gave a viability, T/C (second compound 0.1 µM, first compound 0.000999 µM) of 99.3%, a viability, T/C (second compound 0.1 µM, first compound 0.00316 µM) of 101% and a viability, T/C (second compound 0.1 µM, first compound 0.00999 µM) of 101%. For the same compound, the viability, T/C [3] was 78.2%, the viability, T/C (second compound 0.1 µM, first compound 0.0999 µM) was 0.6% and the viability, T/C [4] was 0.5%. It also gave a viability, T/C (second compound 0.316 µM, first compound 0.000999 µM) of 94.1%, a viability, T/C (second compound 0.316 µM, first compound 0.00316 µM) of 105% and a viability, T/C (second compound 0.316 µM, first compound 0.00999 µM) of 110%. For the same compound, the viability, T/C [5] was 83.1%, the viability, T/C (second compound 0.316 µM, first compound 0.0999 µM) was 0.88% and the viability, T/C [6] was 0.49%. It also gave a viability, T/C (second compound 1 µM, first compound 0.000999 µM) of 92.4%, a viability, T/C (second compound 1 µM, first compound 0.00316 µM) of 95% and a viability, T/C (second compound 1 µM, first compound 0.00999 µM) of 106%. For the same compound, the viability, T/C [7] was 80.9%, the viability, T/C (second compound 1 µM, first compound 0.0999 µM) was 0.78% and the viability, T/C [8] was 0.62%. For the same compound, the viability, T/C (second compound 3.16 µM, first compound 0.000999 µM) was 105%, the viability, T/C (second compound 3.16 µM, first compound 0.00316 µM) was 113% and the viability, T/C (second compound 3.16 µM, first compound 0.00999 µM) was 115%. For the same compound, the viability, T/C [9] was 57.7%, the viability, T/C (second compound 3.16 µM, first compound 0.0999 µM) was 0.9% and the viability, T/C [10] was 0.56%. The viability, T/C (second compound 10 µM, first compound 0.000999 µM) was 105%, the viability, T/C (second compound 10 µM, first compound 0.00316 µM) was 106% and the viability, T/C (second compound 10 µM, first compound 0.00999 µM) was 108%. For the same compound, the viability, T/C [11] was 38.2%, the viability, T/C (second compound 10 µM, first compound 0.0999 µM) was 0.71% and the viability, T/C [12] was 0.5%.
